Where “and” joins values, the source holds several entries; their conditions need not be identical. Equal entries are not always repeated.
What was measured:
[1] = literature report, in words; cited from earlier work
VCAM-1 = details: synthesized peptide 100 μM
Experimental: (§1) The peptides were subjected to study the anti-inflammatory activity; the levels of intercellular adhesion molecule (ICAM-1) and vascular cell adhesion molecule (VCAM-1) expressed in EA.hy926 cells were detected by Western blot as inflammatory biomarkers. The EA, hy926 cells with passage number <12 were grown in 48-well plates. The cells reaching 80-90% confluence were treated with various concentrations (2.5 mg/mL of hydrolysates and digests, 0.2 mM and 3.0 mM of synthetic peptides) of the samples for 18 h. Then the cells were stimulated with TNF-α at 10 ng/mL and incubated for an additional 6 h in order to induce inflammation.
(§2) After the treatment period, the culture medium of the EA. hy926 cells was discarded and a boiling Laemmle buffer containing 0.2% TritonX-100 and 50 μM dithiothreitol was added to lysate the cells. The cell lysates were then run on 9% sodium dodecyl sulfate polyacrylamide gel electrophoresis. The gels were transferred onto nitrocellulose membranes, and immunoblotted with anti-ICAM-1/anti-VCAM-1 antibodies. The concentration of antibody to α-tubulin used was 0.4 μg/mL, while that for all other antibodies was 0.1 μg/mL. The protein bands were scanned using Licor Odyssey BioImager (Licor Biosciences, Lincoln, NB, USA) and quantified by densitometry using Image Studio Lite 5.2.

ICAM-1 = details: synthesized peptide 100 μM
Experimental: as §1, §2

AASDISLLDAQSAPLR [peptide obtained by enzymolysis of β-LG]
antibacterial activity [1]: strong antibacterial activity

IPAVFK: peptide obtained by enzymolysis of β-LG (UniProt P02754 94-99, looked up, fragment)
antibacterial activity [1]: strong antibacterial activity

Leu-Gln-Tyr [LQY]
VCAM-1 (TNF-α) (VCAM-1): 33.7 TNF-α and 33.7 ± 6.9 TNF-α
ICAM-1 (%TNF-α) (ICAM-1): 48.2 %TNF-α and 48.2 ± 6.3 %TNF-α

Phe-Tyr-Gln-Ala [FYQA]
VCAM-1 (TNF-α) (VCAM-1): 41.3 TNF-α and 41.3 ± 10.6 TNF-α
ICAM-1 (%TNF-α) (ICAM-1): 56.6 %TNF-α and 56.6 ± 9.0 %TNF-α

VLVLDTDYK [peptide obtained by enzymolysis of β-LG]
antibacterial activity [1]: strong antibacterial activity
